In PMC3368247 (Frontiers in Pharmacology, 2012):
Like-named read-outs stand apart in the source and are kept apart here. Each block holds one compound with its values, some of them ahead of it.

Key:
Cx50 GJ channels = Cx50 GJ channels (Mus musculus, UniProt P28236); type: cell-based; settings: for effect on Cx50 junctional current: 10 μM; for IC50 Cx50 (μM): Table A1, alcohols, amines, nitriles and ureas; for Hill slope / Hill coefficient of Cx50 inhibition: fit to the Hill equation
Nav1.2 = Nav1.2 (Mus musculus, UniProt B1AWN6); experiment: Nav1.2 current in N1E-115 cells, whole-cell patch-clamp; type: cell-based; settings: N1E-115, read-out: Percentage of current inhibition, Nav1.2
[1] = biological target: Cx45 gap junction channels (Homo sapiens, UniProt P36383); experiment: Cx45 junctional current, dual whole-cell voltage-clamp; type: cell-based; settings: 10 μM
Kv1.1 = Kv1.1 (Mus musculus, UniProt P16388); experiment: Kv1.1 current, whole-cell patch-clamp; type: cell-based; settings: read-out: Percentage of current inhibition, Kv1.1
sodium channels = experiment: Summary of block of the tested sodium channels; type: cell-based; settings: 10 μM; summary in discussion
[2] = tested on: primary lens epithelial cells; experiment: Junctional currents between primary lens epithelial cells; type: cell-based, mouse; settings: 10 μM; for reduction of junctional currents in lens epithelial cells, % of the initial conductance: mouse lenses postnatal day 6, means ± SEM
Kv7.2/7.3 = Kv7.2/7.3 (Homo sapiens, UniProt O43525+O43526); experiment: Kv7.2/7.3 current, whole-cell patch-clamp; type: cell-based; settings: 10 μM
KCa1.1 (BK) = KCa1.1 (BK) (Homo sapiens, UniProt Q12791); experiment: KCa1.1; type: cell-based; settings: read-out: Percentage of current inhibition, KCa1.1 (BK)
KCa2.3 = KCa2.3 current, whole-cell patch-clamp; type: cell-based, human; settings: 10 μM
potassium channels = experiment: Summary of block of the tested potassium channels; type: cell-based; settings: 10 μM; summary in discussion
Nav1.4 = Nav1.4 (Homo sapiens, UniProt P35499); experiment: Nav1.4 current, whole-cell patch-clamp; type: cell-based; settings: 10 μM
Cx32 GJ channels = Cx32 GJ channels (Rattus norvegicus, UniProt P08033); experiment: Cx32 junctional current, dual whole-cell voltage-clamp in N2A cells; type: cell-based; settings: 10 μM
Cx26 GJ channels = Cx26 GJ channels (Rattus norvegicus, UniProt P21994); experiment: Cx26 junctional current, dual whole-cell voltage-clamp in N2A cells; type: cell-based; settings: 10 μM
Kv4.2 = Kv4.2 (Rattus norvegicus, UniProt Q63881); experiment: Kv4.2 current, whole-cell patch-clamp; type: cell-based; settings: read-out: Percentage of current inhibition, Kv4.2
Kv2.1 = Kv2.1 (Homo sapiens, UniProt Q14721); experiment: Kv2.1 current, whole-cell patch-clamp; type: cell-based; settings: read-out: Percentage of current inhibition, Kv2.1
Kv3.1 = Kv3.1 (Mus musculus, UniProt P15388); experiment: Kv3.1 current, whole-cell patch-clamp; type: cell-based; settings: read-out: Percentage of current inhibition, Kv3.1
hKCa3.1 = hKCa3.1 (Homo sapiens, UniProt O15554); experiment: KCa3.1 current, whole-cell patch-clamp; type: cell-based
Kv1.3 = Kv1.3 (Mus musculus, UniProt P16390); experiment: Kv1.3 current, whole-cell patch-clamp; type: cell-based; settings: read-out: Percentage of current inhibition, Kv1.3
Kv11.1 (hERG) = Kv11.1 (hERG) (Homo sapiens, UniProt Q12809); experiment: Kv11.1; type: cell-based; settings: HEK-293 cells stably expressing Kv11.1 (hERG)
Cx46 GJ channels = Cx46 GJ channels (Rattus norvegicus, UniProt P29414); experiment: Cx46 junctional current, dual whole-cell voltage-clamp in N2A cells; type: cell-based; settings: 10 μM
[3] = biological target: channels built out of Cx36 (Homo sapiens, UniProt Q9UKL4); experiment: Cx36 junctional current, dual whole-cell patch-clamp; type: cell-based; settings: 10 μM
pannexin channels = settings: read-out: IC50, pannexin channels; ref Locovei et al., 2007; cited from earlier work
Cx26 hemichannel = settings: read-out: IC50, Cx26 hemichannel currents; Xenopus oocytes; literature value; cited from earlier work
P2x7 receptors = settings: read-out: IC50, P2x7 receptors; ref Suadicani et al., 2006; cited from earlier work
Cx38 hemichannel = settings: read-out: IC50, Cx38 hemichannel currents; Xenopus oocytes; literature value; cited from earlier work
[4] = biological target: 11β-hydroxysteroid dehydrogenase; settings: read-out: IC50, 11β-hydroxysteroid dehydrogenase; ref Monder et al., 1989; cited from earlier work
[5] = tested on: voltage-gated Ca^2+ currents; settings: read-out: IC50, voltage-gated Ca2+ currents; ref Vessey et al., 2004; cited from earlier work
[6] = IC50 KCa3.1, Table 1, mean ± SD

Sequence of hKCa3.1 (O15554 whole entry): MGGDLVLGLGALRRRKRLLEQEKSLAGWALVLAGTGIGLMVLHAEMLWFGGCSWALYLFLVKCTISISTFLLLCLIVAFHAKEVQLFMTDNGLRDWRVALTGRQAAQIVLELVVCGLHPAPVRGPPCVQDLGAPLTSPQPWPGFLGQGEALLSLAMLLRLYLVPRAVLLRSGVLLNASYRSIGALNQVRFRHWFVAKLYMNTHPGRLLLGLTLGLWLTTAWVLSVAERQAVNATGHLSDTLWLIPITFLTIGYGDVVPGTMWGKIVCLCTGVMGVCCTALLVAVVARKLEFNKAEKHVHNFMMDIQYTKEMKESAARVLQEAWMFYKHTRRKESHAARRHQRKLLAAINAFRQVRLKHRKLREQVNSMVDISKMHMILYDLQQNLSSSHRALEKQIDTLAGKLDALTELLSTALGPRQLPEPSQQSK
Sequence of Cx50 GJ channels (P28236 whole entry): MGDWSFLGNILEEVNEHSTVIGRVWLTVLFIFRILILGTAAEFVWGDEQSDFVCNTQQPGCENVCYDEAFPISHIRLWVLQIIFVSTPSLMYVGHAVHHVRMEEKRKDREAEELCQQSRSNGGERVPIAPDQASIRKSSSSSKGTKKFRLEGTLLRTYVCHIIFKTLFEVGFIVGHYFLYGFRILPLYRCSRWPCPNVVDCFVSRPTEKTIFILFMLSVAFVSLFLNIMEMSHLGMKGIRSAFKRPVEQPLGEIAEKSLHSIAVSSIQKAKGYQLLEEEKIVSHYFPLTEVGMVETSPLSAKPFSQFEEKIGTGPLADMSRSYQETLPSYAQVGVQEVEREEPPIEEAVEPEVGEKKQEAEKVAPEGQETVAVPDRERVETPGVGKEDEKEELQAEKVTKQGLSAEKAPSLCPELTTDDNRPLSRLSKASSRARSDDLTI
Sequence of Cx32 GJ channels (P08033 whole entry): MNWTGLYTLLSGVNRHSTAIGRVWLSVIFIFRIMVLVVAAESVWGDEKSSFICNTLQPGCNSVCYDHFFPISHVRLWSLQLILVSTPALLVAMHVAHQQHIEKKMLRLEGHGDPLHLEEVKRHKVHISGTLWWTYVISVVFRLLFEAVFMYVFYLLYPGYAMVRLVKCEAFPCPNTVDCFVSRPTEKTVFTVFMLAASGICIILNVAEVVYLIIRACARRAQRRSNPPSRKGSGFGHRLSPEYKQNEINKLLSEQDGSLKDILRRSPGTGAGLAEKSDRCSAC
Sequence of Kv1.3 (P16390 whole entry): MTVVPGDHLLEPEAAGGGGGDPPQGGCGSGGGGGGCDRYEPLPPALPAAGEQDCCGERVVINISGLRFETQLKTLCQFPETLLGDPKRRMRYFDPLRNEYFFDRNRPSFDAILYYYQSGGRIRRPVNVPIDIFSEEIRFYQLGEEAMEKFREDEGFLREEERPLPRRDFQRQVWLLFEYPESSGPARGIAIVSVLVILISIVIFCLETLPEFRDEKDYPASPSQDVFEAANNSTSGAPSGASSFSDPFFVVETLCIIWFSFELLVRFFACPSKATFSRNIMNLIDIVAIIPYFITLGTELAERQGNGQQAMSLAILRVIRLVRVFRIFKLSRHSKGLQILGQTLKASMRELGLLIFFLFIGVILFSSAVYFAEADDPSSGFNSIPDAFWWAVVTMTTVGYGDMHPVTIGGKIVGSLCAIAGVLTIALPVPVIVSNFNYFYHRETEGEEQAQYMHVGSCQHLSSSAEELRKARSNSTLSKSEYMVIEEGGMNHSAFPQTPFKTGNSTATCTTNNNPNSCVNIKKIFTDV
Sequence of Kv1.1 (P16388 whole entry): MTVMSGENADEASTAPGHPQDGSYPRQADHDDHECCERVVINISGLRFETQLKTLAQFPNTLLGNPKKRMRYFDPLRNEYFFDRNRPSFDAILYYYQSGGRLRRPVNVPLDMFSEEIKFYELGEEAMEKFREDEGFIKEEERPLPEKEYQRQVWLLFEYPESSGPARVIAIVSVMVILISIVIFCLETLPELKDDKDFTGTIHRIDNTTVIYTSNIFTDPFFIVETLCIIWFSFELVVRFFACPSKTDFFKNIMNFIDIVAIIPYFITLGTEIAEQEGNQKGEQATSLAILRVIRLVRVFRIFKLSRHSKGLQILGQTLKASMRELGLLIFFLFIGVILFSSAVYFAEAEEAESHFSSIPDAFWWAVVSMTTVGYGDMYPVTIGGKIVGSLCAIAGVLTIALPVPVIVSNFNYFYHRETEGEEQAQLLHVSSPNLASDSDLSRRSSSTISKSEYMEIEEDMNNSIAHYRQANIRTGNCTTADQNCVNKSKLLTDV
Sequence of Kv4.2 (Q63881 whole entry): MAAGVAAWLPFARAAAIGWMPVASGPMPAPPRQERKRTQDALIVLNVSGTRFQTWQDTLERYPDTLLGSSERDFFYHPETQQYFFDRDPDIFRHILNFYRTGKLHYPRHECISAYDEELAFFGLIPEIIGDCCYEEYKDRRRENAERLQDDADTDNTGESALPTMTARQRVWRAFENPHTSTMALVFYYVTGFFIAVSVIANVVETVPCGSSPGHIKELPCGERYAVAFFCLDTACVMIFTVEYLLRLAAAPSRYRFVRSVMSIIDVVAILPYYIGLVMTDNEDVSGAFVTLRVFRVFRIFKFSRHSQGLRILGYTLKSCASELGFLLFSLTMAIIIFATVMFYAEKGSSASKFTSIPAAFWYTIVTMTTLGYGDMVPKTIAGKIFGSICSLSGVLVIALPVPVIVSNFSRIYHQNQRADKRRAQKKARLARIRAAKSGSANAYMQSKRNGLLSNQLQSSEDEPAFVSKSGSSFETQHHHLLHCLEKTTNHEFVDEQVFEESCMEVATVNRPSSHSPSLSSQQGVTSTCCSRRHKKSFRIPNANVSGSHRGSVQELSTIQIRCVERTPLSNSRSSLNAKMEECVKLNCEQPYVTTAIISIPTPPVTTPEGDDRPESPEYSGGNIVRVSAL
Sequence of Nav1.2 (B1AWN6 whole entry): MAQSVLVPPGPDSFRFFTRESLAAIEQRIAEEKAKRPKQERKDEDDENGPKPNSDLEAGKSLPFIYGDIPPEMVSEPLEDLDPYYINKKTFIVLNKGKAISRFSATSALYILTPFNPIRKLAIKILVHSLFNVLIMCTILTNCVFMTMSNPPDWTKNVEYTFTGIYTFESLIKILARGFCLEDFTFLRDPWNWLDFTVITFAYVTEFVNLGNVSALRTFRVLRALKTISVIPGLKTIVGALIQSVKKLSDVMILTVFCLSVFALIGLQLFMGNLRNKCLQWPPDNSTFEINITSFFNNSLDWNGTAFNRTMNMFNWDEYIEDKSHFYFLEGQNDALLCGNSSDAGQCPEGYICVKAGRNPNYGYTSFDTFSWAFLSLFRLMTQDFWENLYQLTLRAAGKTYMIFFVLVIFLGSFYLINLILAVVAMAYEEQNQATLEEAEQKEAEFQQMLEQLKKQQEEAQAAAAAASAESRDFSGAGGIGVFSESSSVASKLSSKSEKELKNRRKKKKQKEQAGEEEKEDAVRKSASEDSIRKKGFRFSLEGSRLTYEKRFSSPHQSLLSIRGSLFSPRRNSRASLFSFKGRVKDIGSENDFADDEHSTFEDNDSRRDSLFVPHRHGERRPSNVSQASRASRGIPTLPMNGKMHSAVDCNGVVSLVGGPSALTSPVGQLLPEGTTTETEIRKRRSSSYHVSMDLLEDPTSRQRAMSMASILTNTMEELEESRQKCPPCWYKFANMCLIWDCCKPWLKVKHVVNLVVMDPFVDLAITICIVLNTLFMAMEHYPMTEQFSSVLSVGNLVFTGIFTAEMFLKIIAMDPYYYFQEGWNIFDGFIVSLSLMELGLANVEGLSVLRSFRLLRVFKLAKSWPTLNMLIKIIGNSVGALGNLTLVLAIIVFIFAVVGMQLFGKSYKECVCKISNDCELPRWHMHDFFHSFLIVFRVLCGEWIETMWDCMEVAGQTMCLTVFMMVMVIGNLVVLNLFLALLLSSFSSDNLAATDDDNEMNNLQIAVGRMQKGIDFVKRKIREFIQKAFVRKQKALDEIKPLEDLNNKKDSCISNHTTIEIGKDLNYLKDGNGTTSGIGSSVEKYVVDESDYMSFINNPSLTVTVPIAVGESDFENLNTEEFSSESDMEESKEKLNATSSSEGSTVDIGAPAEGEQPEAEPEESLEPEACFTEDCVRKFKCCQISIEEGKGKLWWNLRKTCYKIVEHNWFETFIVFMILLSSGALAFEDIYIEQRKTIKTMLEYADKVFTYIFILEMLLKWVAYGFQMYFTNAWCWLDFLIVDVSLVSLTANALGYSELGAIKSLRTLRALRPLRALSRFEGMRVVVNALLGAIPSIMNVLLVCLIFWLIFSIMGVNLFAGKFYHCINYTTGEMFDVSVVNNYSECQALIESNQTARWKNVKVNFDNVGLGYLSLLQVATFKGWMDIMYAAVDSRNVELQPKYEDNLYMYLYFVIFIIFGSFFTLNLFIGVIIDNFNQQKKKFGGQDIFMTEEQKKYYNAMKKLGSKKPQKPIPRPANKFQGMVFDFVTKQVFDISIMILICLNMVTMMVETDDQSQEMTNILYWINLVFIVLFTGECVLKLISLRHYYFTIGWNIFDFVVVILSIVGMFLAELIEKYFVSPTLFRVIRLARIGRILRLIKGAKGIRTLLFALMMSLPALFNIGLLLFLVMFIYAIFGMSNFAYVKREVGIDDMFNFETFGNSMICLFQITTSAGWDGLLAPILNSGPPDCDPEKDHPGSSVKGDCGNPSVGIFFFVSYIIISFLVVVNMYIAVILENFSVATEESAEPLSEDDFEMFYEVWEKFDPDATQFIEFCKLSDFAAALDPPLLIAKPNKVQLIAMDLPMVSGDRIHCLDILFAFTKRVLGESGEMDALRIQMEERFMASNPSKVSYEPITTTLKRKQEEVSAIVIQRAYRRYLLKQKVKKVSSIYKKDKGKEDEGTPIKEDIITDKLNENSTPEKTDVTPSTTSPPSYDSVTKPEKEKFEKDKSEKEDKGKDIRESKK

effect on Cx50 junctional current (Cx50 GJ channels): no effect
Compound: FC(F)(F)Oc1ccc(NC(c2ccccc2)(c2ccccc2)c2ccccc2Cl)cc1 [T150, N-[(2-Chlorophenyl)diphenylmethyl]-4-(trifluoromethoxy)aniline]

IC50 Cx50 (μM) (Cx50 GJ channels): No effect
Compound: COc1ccccc1C(O)(c1ccccc1)c1ccccc1OC [T165, Bis-(2-methoxyphenyl)(phenyl)methanol]

inhibition at 10 µM (Nav1.2): 11 ± 1% | effect on Cx45 gap junction channels [1]: no significant effect | inhibition at 10 µM (Kv1.1): 65 ± 10% | Percentage of current inhibition, Kv7.2/7.3 (Kv7.2/7.3): No effect (n = 3) | IC50 (Cx50 GJ channels): 1.2 µM | selectivity over other connexins as well as major neuronal and cardiac voltage-gated K+ and Na+ channels (Cx50 GJ channels): at least 10 fold | Hill slope / Hill coefficient of Cx50 inhibition (Cx50 GJ channels): 1.6 | inhibition at 10 µM (KCa1.1 (BK)): 43 ± 4% | Percentage of current inhibition, Nav1.4 (Nav1.4): No effect (n = 3) | inhibition of Cx32 GJ channel current / reduction of junction conductance (Cx32 GJ channels): no significant effect | inhibition of Cx26 GJ channel current / reduction of junction conductance (Cx26 GJ channels): no significant effect | inhibition at 10 µM (Kv4.2): 16 ± 4% | inhibition at 10 µM (Kv2.1): 28 ± 4% | inhibition at 10 µM (Kv3.1): 32 ± 12% | IC50 (hKCa3.1; [6]): 10.2 µM | IC50 (hKCa3.1; IC50 KCa3.1, running text): 10 µM | inhibition at 10 µM (Kv1.3): 52 ± 2%
Compound: COc1ccccc1C(Nc1nccs1)(c1ccccc1)c1ccccc1 [T122, N-[(2-Methoxyphenyl)diphenylmethyl]-1,3-thiazol-2-amine]
inhibition of sodium channels (sodium channels): < 11% | reversibility of reduction of junctional currents on washout [2]: reversible | reduction of junctional currents in lens epithelial cells, % of the initial conductance [2]: 67 ± 9% | Percentage of current inhibition, KCa2.3 (KCa2.3): No effect (n = 3) | inhibition of most of the tested potassium channels (potassium channels): 18–43% | inhibition at 10 µM (Kv11.1 (hERG)): 42 ± 3%

IC50 Cx50 (μM) (Cx50 GJ channels): No effect | IC50 (hKCa3.1; IC50 KCa3.1 (μM), Table A1): 25 µM
Compound: O=C(O)CC(c1ccccc1)(c1ccccc1)c1ccccc1 [T51, 3,3,3-triphenylpropionic acid]

Compound: c1ccc(C(c2ccccc2)c2ccncc2)cc1 [T160, diphenyl-4-pyridylmethane]
IC50 (Cx50 GJ channels): 4 µM | IC50 (hKCa3.1): 8.6 µM

IC50 (Cx50 GJ channels): 2.8 µM | IC50 (hKCa3.1; IC50 KCa3.1 (μM), Table A1): 0.53 µM
Compound: OC(c1ccccc1)(c1ccccc1)c1ccc(Cl)cc1 [T1, (4-Chlorophenyl)diphenylmethanol]

IC50 (Cx50 GJ channels): 10 µM
Compound: COc1ccc(NC(c2ccccc2)(c2ccccc2)c2ccccc2Cl)cc1 [T106, N-[(2-Chlorophenyl)diphenylmethyl]-4-methoxyaniline]

IC50 (Cx50 GJ channels): 1 µM | IC50 (hKCa3.1; IC50 KCa3.1 (μM), Table A1): 0.5 µM
Compound: OC(c1ccccc1)(c1ccccc1)c1ccccc1 [Triphenylmethanol, triphenylmethanol]

effect on Cx50 junctional current (Cx50 GJ channels): no effect
Compound: FC(F)(F)Oc1ccccc1NC(c1ccccc1)(c1ccccc1)c1ccccc1Cl [T104, N-[(2-Chlorophenyl)diphenylmethyl]-2-(trifluoromethoxy)aniline]

inhibition of Cx46 GJ channel current / reduction of junction conductance (Cx46 GJ channels): no effect | effect on channels built out of Cx36 [3]: no effect | inhibition of Cx32 GJ channel current / reduction of junction conductance (Cx32 GJ channels): no effect
Compound: Clc1ccccc1C(c1ccccc1)(c1ccccc1)n1ccnc1 [Clotrimazole]

IC50 Cx50 (μM) (Cx50 GJ channels): No effect
Compound: Nc1ccccc1C(O)(c1ccccc1)c1ccccc1 [T154-OH, (2-Aminophenyl)diphenylmethanol]

effect on Cx50 junctional current (Cx50 GJ channels): no effect
Compound: O=c1c(O)c(-c2ccc(O)c(O)c2)oc2cc(O)cc(O)c12 [quercetin, reference compound]

effect on Cx50 junctional current (Cx50 GJ channels): no effect
Compound: Clc1ccccc1C(Oc1ccccc1)(c1ccccc1)c1ccccc1 [T107, 1-Chloro-2-(phenoxydiphenylmethyl)benzene]

inhibition at 10 µM (Nav1.2): 9 ± 0.5% | effect on Cx45 gap junction channels [1]: no significant effect | inhibition at 10 µM (Kv1.1): 28 ± 9% | Percentage of current inhibition, Kv7.2/7.3 (Kv7.2/7.3): No effect (n = 2) | IC50 (Cx50 GJ channels): 2.4 µM | selectivity over other connexins as well as major neuronal and cardiac voltage-gated K+ and Na+ channels (Cx50 GJ channels): at least 10 fold | Hill slope / Hill coefficient of Cx50 inhibition (Cx50 GJ channels): 1.7 | inhibition at 10 µM (KCa1.1 (BK)): 26 ± 2% | Percentage of current inhibition, Nav1.4 (Nav1.4): No effect (n = 3) | inhibition of Cx32 GJ channel current / reduction of junction conductance (Cx32 GJ channels): no significant effect | inhibition of Cx26 GJ channel current / reduction of junction conductance (Cx26 GJ channels): no significant effect | inhibition at 10 µM (Kv4.2): 15 ± 3% | inhibition at 10 µM (Kv2.1): 28 ± 4% | inhibition at 10 µM (Kv3.1): 37 ± 16% | IC50 (hKCa3.1; [6]): 1.3 µM | inhibition at 10 µM (Kv1.3): 18 ± 4%
Compound: Ic1ccccc1C(Nc1nccs1)(c1ccccc1)c1ccccc1 [T136, N-[(2-Iodophenyl)diphenylmethyl]-1,3-thiazol-2-amine]
inhibition of sodium channels (sodium channels): < 11% | reversibility of reduction of junctional currents on washout [2]: reversible | reduction of junctional currents in lens epithelial cells, % of the initial conductance [2]: 64 ± 8% | Percentage of current inhibition, KCa2.3 (KCa2.3): No effect (n = 3) | inhibition of most of the tested potassium channels (potassium channels): 18–43% | inhibition at 10 µM (Kv11.1 (hERG)): 27 ± 4%

IC50 Cx50 (μM) (Cx50 GJ channels): No effect
Compound: COc1ccccc1C(O)(c1ccccc1)c1ccccc1 [T117, (2-Methoxyphenyl)diphenylmethanol]

effect on Cx50 junctional current (Cx50 GJ channels): no effect
Compound: FC(F)(F)Oc1cccc(NC(c2ccccc2)(c2ccccc2)c2ccccc2Cl)c1 [T102, N-[(2-Chlorophenyl)diphenylmethyl]-3-(trifluoromethoxy)aniline]

Compound: CC1(C)[C@@H](OC(=O)CCC(=O)O)CC[C@]2(C)[C@H]3C(=O)C=C4[C@@H]5C[C@@](C)(C(=O)O)CC[C@]5(C)CC[C@@]4(C)[C@]3(C)CC[C@@H]12 [carbenoxolone]
IC50 (pannexin channels): 2 to 5 µM | IC50 (Cx26 hemichannel): 21 µM | IC50 (P2x7 receptors): 0.175 µM | IC50 (Cx38 hemichannel): 34 µM | IC50 [4]: ~5 µM | IC50 [5]: 48 µM

IC50 (Cx50 GJ channels): 0.9 µM | IC50 (hKCa3.1; IC50 KCa3.1 (μM), Table A1): 3.7 µM
Compound: c1ccc(C(c2ccccc2)c2ccccc2)cc1 [Triphenylmethane, triphenylmethane]

reversibility of inhibition of Cx50 junctional currents upon washout (Cx50 GJ channels): completely reversible | effect on Cx50 junctional current (Cx50 GJ channels): significant inhibition
Compound: COc1ccc(CCN2CCC(Nc3nc4ccccc4n3Cc3ccc(F)cc3)CC2)cc1 [Astemizole, reference compound]

IC50 (Cx50 GJ channels): 3.6 µM | IC50 (hKCa3.1; IC50 KCa3.1 (μM), Table A1): 0.55 µM
Compound: OC(c1ccccc1)(c1ccccc1)c1cccc(Cl)c1 [T2, (3-Chlorophenyl)diphenylmethanol]

reversibility of inhibition of Cx50 junctional currents upon washout (Cx50 GJ channels): only partially reversible | effect on Cx50 junctional current (Cx50 GJ channels): significant inhibition
Compound: C[C@@H]1O[C@@H](OC[C@H]2O[C@@H](Oc3c(-c4ccc(O)c(O)c4)oc4cc(O)cc(O)c4c3=O)[C@H](O)[C@@H](O)[C@@H]2O)[C@H](O)[C@H](O)[C@H]1O [rutin, reference compound]

effect on Cx50 junctional current (Cx50 GJ channels): no effect
Compound: Clc1ccccc1C(Nc1ccccc1)(c1ccccc1)c1ccccc1 [T109, N-[(2-Chlorophenyl)diphenylmethyl]aniline]

Compound: OC(c1ccccc1)(c1ccccc1)c1ccncc1 [T50, diphenyl-4-pyridylmethanol]
IC50 (Cx50 GJ channels): 10 µM | IC50 (hKCa3.1): > 50 µM
